Measurements taken from US10836726B2, “AZO-quaternary pyridinium salts with acid-enhanced antibacterial efficacy, methods of use, methods of synthesis, and uses thereof” (priority 2016, dated 2020).

Assays:
Format in all cases: cell-based
[1] = system: Streptococcus mutans (S. mutans, UA159); assay: Minimum bactericidal concentration (MBC) determination by agar colony formation; details: more effective in acidic conditions
Text: The inventor observed similar pH-sensitive antibacterial activity of Azo-QPS-C16 towards the Gram-positive, lactic acid producing, cariogenic bacteria S. mutans.
Bacterial strains and growth conditions. Streptococcus mutans (S. mutans, UA159) and Escherichia coli (E. coli, K12) were purchased from ATCC (American Type Culture Collection, Manassas, Va., USA). Todd Hewitt Broth (THB), and Lysogeny Broth (LB) powder and agar were purchased from BD (Becton, Dickinson and Company, Franklin Lakes, N.J., USA). Planktonic cultures were inoculated from 25% (by volume) glycerol frozen stocks stored at −80° C. E. coli cultures were grown in LB at 37° C. in a shaker-incubator. S. mutans cultures were grown in THB at 37° C. with 5% (by volume) CO2 overnight.
(§1) In a 96-well plate, 2 μL of Azo-QPS-C16 at various concentrations in dimethyl sulfoxide (DMSO) were added to 98 μL of bacteria suspension per well for a final concentration ranging from a 2-fold dilution series between 40 to 1.25 μg/mL of Azo-QPS-C16. […] E. coli were cultured at 37° C., and the OD600 of each well was measured by a Tecan Spark microplate reader (Männedorf, Switzerland) every 15 minutes for up to 19 hours, with 30 seconds shaking before each measurement. S. mutans were grown at 37° C. with 5% CO2, and the OD600 of each well was measured periodically using a Molecular Devices (Sunnyvale, Calif.) SpectraMax M5 microplate reader. […]

[2] = system: Escherichia coli (E. coli, K12); assay: as above; details: MBC increased as pH increased
Description: (§2) Azo-QPS-C16 was effective on both […] bacteria. The ability of bacteria to proliferate after exposure to Azo-QPS-C16 was characterized by adding growth medium and measuring the optical density (OD) at 600 nm every 15 minutes in pH 4.1, 5.8, and 7.9 buffer. […] However, exposure at pH 7.9 required a much higher concentration (40 μg/mL) to inhibit cell growth. […] The pH dependence of bactericidal activity of Azo-QPS-C16 in terms of minimum bactericidal concentration (MBC) was evaluated by inoculating cultures onto a Lysogeny Broth (LB) agar plate after treating the cells with a twofold dilution series of Azo-QPS-C16.
(§3) Bacterial strains and growth conditions. […]
as §1

[3] = system: Escherichia coli (E. coli, K12); assay: Bacterial growth curves (OD600) after exposure in pH buffers
Description: as §2, §3, §1

C=C(C)C(=O)Oc1ccc(/N=N/c2cc[n+](CCCCCCCCCCCCCCCC)cc2)cc1.[Br-] [Azo-QPS-C16, (E)-1-hexadecyl-4-((4-(methacryloyloxy)phenyl)diazenyl)-pyridinium bromide]
MBC-based effectiveness in acidic versus mildly basic conditions [1]: 8 fold
difference in MBC between pH 4.1 and pH 7.9 [2]: 16 fold
concentration that fully inhibited E. coli growth up to 19 hours ([3]; exposure at pH 4.1, 45 min treatment, OD 600 nm): 2.5 µg/mL
concentration required to inhibit cell growth ([3]; exposure at pH 7.9, E. coli): 40 µg/mL
